Reference: patent US10899754B2, “Modulators of indoleamine 2,3-dioxygenase” (GLAXOSMITHKLINE INTELLECTUAL PROPERTY DEVELOPMENT LIMITED, priority 2016, dated 2021)
Where two headings read alike, the source gives them in different places.

Legend:
[1] = molecular target: T1, indoleamine 2, 3-dioxygenase (IDO1) (Homo sapiens, UniProt P14902); assay: IDO1 PBMC RapidFire MS assay (kynurenine detection by mass spectrometry); format: cell-based; design: to induce the expression of indoleamine 2, 3-dioxygenase (IDO1); host or cells: human PBMC stimulated with IFN-gamma and LPS; conditions: human PBMC stimulated with IFN-γ and LPS, 2 days, pIC50, read-out: PBMC PXC50 (converted)
T1 sequence (P14902 whole entry): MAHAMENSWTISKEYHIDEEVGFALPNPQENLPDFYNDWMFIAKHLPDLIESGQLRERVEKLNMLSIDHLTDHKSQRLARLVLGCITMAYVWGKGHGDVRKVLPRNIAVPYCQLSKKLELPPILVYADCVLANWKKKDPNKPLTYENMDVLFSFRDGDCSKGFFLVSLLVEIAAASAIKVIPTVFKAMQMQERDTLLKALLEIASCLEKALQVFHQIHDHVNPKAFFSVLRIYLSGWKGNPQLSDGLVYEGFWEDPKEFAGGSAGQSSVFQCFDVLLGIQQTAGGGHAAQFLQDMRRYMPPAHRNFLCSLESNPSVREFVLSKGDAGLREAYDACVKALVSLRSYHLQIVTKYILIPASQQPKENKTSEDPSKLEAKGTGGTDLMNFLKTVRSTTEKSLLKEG
Procedure, shortened: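 Kynurenine output, read by RapidFire mass spectrometry as ratio to an internal standard, was measured after 2-day compound exposure (11-point, 3-fold dilutions) of human PBMCs induced with 100 ng/ml IFN-γ and 50 ng/ml LPS. Cell viability tracked alongside via ATP luminescence; XC50 from curve fitting.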

[2] = test system: human peripheral blood mononuclear cells (PBMC); assay: PBMC cytotoxicity assay (CellTiter-Glo); format: cell-based; conditions: 2 days, pCC50
Procedure, shortened: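 % cytotoxicity was taken from CellTiter-Glo luminescence, using wells without cells and stimulated DMSO wells as references, and fitted by four-parameter curve to give XC50. Cells were human PBMC at 50,000 per well, activated with 100 ng/ml IFN-γ plus 50 ng/ml LPS. Incubation with 11-point, 3-fold dilution series ran for 2 days at 37 °C.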

[3] = molecular target: T2, ePL tagged IDO1 (Homo sapiens, UniProt P14902); assay: CETSA (Cellular Thermal Shifting assay) in Hela cells; format: binding; conditions: BacMam ePL tagged IDO1, 3 hours at 37° C., heated at 53° C. for 3 min
T2 construct: expressed in transfected cells; host or cells: HeLa cells transduced with BacMam virus
T2 sequence (P14902 whole entry): as above
Protocol: Cellular Thermal Shifting assays were used to directly monitor the ligand binding to target proteins in cells. Hela cells were transduced with BacMam virus expressing ePL tagged IDO1 overnight. The cells were then plated over the compounds for 3 hours at 37° C. in cell culture medium containing 1% FBS. The plates were then sealed and heated at 53° C. for 3 min. InCell Hunter reagents were added and luminescence was read in 90 min.

[4] = test system: human epithelial HeLa cells; assay: HeLa cytotoxicity assay (CellTiter-Glo); format: cell-based; conditions: pCC50
Procedure, shortened: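 Read-out is CellTiter-Glo luminescence after 2 days at 37 °C, on IFN-γ-stimulated (10 nM) HeLa cells seeded at 5,000/well with compounds in 11-point 3-fold dose series. pCC50 from four-parameter curve fit; wells without cells set 100% cytotoxicity, stimulated cells with DMSO set 0%.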

[5] = molecular target: T1, indoleamine 2, 3-dioxygenase (IDO1); assay: IDO1 HeLa RapidFire MS assay (kynurenine detection by mass spectrometry); format: cell-based; design: to induce the expression of indoleamine 2, 3-dioxygenase (IDO1); conditions: HeLa cells, pIC50, read-out: IDO1_HELA_PXC50 (converted)
Procedure, shortened: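 Compound potency reported as pIC50 from kynurenine/internal-standard ratio (RapidFire MS) in supernatant of IFN-γ-induced (10 nM) HeLa cells, 5,000 per well, after 2 days' treatment with 11-point dilutions. Cytotoxicity in the same format by luminescent ATP detection, reported as pCC50.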

SMILES	IC50 [1]	EC50 ([3]; read-out: pXC50_1 (converted))	EC50 ([3]; read-out: pXC50_2 (converted))	IC50 [5]	PBMC TOX PXC50 [2]	HELA_IDO1_TOX_PXC50 [4]
CC(C)CN(c1ccc([C@H](C)CC(=O)O)cc1Nc1nc(C(F)(F)F)ns1)[C@H]1CC[C@H](O)CC1 [Example 44, (R)-3-(4-(((1r,4R)-4-hydroxycyclohexyl) (isobutyl)amino)-3-((3-(trifluoromethyl)-1,2,4-thiadiazol-5-yl)amino)phenyl)butanoic Acid]	0.631 nM	1.7 nM	–	–	<5	–
CC(C)CC(=O)N1CCC(N(CC(C)C)c2ccc([C@H](C)CC(=O)O)cc2Nc2nc(C(F)(F)F)ns2)CC1 [Example 67, (R)-3-(4-(isobutyl(1-(3-methylbutanoyl)piperidin-4-yl)amino)-3-((3-(trifluoromethyl)-1,2,4-thiadiazol-5-yl)amino)phenyl)butanoic Acid]	2 nM	72.4 nM	50.1 nM	–	<5	–
CC(C)CN(CC(C)C)c1ccc(C(C)CC(=O)O)cc1Nc1nnn[nH]1 (centres unmarked) [example 168, 3-{4-[bis(2-methylpropyl)amino]-3-[(1H-1,2,3,4-tetrazol-5-yl)amino]phenyl}butanoic acid]	> 10000 nM	–	–	> 10000 nM	<5	<5
CC(C)CN(c1ccc([C@H](C)CC(=O)O)cc1Nc1nc(C(F)(F)F)cs1)C1CCOCC1 [Example 22, (R)-3-(4-(Isobutyl(tetrahydro-2H-pyran-4-yl)amino)-3-((4-(trifluoromethyl)thiazol-2-yl)amino)phenyl)butanoic Acid]	2.51 nM	–	–	2.51 nM	<5	<5
CC(C)CN(CC(C)C)c1ccc(C2CC2C(=O)O)cc1Nc1nc(Cl)ns1 (stereo not drawn) [example 177, (1R*,2R**)-2-{4-[bis(2-methylpropyl)amino]-3-[(3-chloro-1,2,4-thiadiazol-5-yl)amino]phenyl}cyclo-propane-1-carboxylic acid]	31.6 nM	–	–	158 nM	<5	<5
CC(C)CN(CC(C)C)c1ccc(C(C)CC(=O)O)cc1Nc1ncccn1 (centres unmarked) [example 156, 3-{4-[bis(2-methylpropyl)amino]-3-[(pyrimidin-2-yl)amino]phenyl}butanoic acid]	7940 nM	–	–	> 10000 nM	<5	<5
CC(C)CN(c1ccc([C@H](C)CC(=O)O)cc1Nc1nc(C2CC2)cs1)C1CCOCC1 [example 211, (3R)-3-{3-[(4-cyclopropyl-1,3-thiazol-2-yl)amino]-4-[(2-methylpropyl)(oxan-4-yl)amino]phenyl}butanoic acid]	20 nM	–	–	25.1 nM	<5	<5
CC[C@H](CC(=O)O)c1ccc(N(CC(C)C)CC(C)C)c(Nc2nc(C(F)(F)F)ns2)c1 [Example 39, (R)-3-(4-(diisobutylamino)-3-((3-(trifluoromethyl)-1,2,4-thiadiazol-yl)amino)phenyl)pentanoic Acid]	1 nM	–	–	2.51 nM	<5	<5
CC(C)CN(c1ccc(C(C)(C)CC(=O)O)cc1Nc1nc(C(F)(F)F)ns1)C1CCOCC1 [Example 1, 3-(4-(isobutyl(tetrahydro-2H-pyran-4-yl)amino)-3-((3-(trifluoromethyl)-1,2,4-thiadiazol-5-yl)amino)phenyl)-3-methylbutanoic Acid]	0.794 nM	–	–	3.98 nM	<5	<5
CC(C)CN(c1cc(F)c([C@H](C)CC(=O)O)cc1Nc1ccc(Cl)nc1)C1CCOCC1 [Example 37, (R)-3-(5-((6-chloropyridin-3-yl)amino)-2-fluoro-4-(isobutyl(tetrahydro-2H-pyran-4-yl)amino)phenyl)butanoic Acid]	1.26 nM	–	–	5.01 nM	<5	<5

The next lines start with results.

IC50 [1]	EC50 ([3]; read-out: pXC50_1 (converted))	EC50 ([3]; read-out: pXC50_2 (converted))	IC50 [5]	SMILES	PBMC TOX PXC50 [2]	HELA_IDO1_TOX_PXC50 [4]
5.01 nM	–	–	7.94 nM	CC(C)CN(c1ccc([C@H](C)CC(=O)O)cc1Nc1ccc(Cl)nn1)[C@H]1CC[C@H](O)CC1 [Example 57, (R)-3-(3-((6-chloropyridazin-3-yl)amino)-4-(((1r,4R)-4-hydroxycyclohexyl) (isobutyl)amino)phenyl)butanoic Acid]	<5	<5
7.94 nM	–	–	15.8 nM	COCc1nnc(Nc2cc([C@H](C)CC(=O)O)ccc2N(CC(C)C)C2CCCCC2)[nH]1 [Example 82, (R)-3-(4-(cyclohexyl(isobutyl)amino)-3-((5-(methoxymethyl)-4H-1,2,4-triazol-3-yl)amino)phenyl)butanoic Acid]	<5	<5
63.1 nM	–	–	200 nM	CC(C)CN(c1ccc(-c2ccccc2C(=O)O)cc1Nc1cccc(Cl)n1)C1CCCCC1 [example 266, 3′-[(6-chloropyridin-2-yl)amino]-4′-[cyclohexyl(2-methylpropyl)amino]-[1,1′-biphenyl]-2-carboxylic acid]	<5	<5
200 nM	–	–	501 nM	Cc1nsc(Nc2cc(-c3ccccc3C(=O)O)ccc2N(CC(C)C)CC(C)C)n1 [example 286, 4′-[bis(2-methylpropyl)amino]-3′-[(3-methyl-1,2,4-thiadiazol-5-yl)amino]-[1,1′-biphenyl]-2-carboxylic acid]	<5	<5
25.1 nM	–	–	158 nM	CC(C)CN(c1ccc(C(C)OCC(=O)O)cc1Nc1nc(Cl)ns1)C1CCCCC1 (centres unmarked) [example 171, 2-(1-{3-[(3-chloro-1,2,4-thiadiazol-5-yl)amino]-4-[cyclohexyl(2-methylpropyl)amino]phenyl}ethoxy)acetic acid]	<5	<5
7.94 nM	–	–	25.1 nM	CC(C)CN(c1ccc([C@H](C)CC(=O)O)cc1Nc1cccc(Cl)n1)C1CCCCC1 [example 169, (3R)-3-{3-[(6-chloropyridin-2-yl)amino]-4-[cyclohexyl(2-methylpropyl)amino]phenyl}butanoic acid]	<5	<5
25.1 nM	–	–	20 nM	CC(C)CN(c1ccc(C(C)OCC(=O)O)cc1Nc1nc2ccccc2[nH]1)C1CCCCC1 (centres unmarked) [example 173, 2-(1-{3-[(1H-1,3-benzodiazol-2-yl)amino]-4-[cyclohexyl(2-methylpropyl)amino]phenyl}ethoxy)acetic acid]	<5	<5
1.58 nM	–	–	3.16 nM	CC(C)CN(c1ccc(-c2ccccc2C(=O)O)cc1Nc1nc(C(F)(F)F)ns1)C1CCOCC1 [Example 103, 4′-(isobutyl(tetrahydro-2H-pyran-4-yl)amino)-3′-((3-(trifluoromethyl)-1,2,4-thiadiazol-5-yl)amino)-[1,1′-biphenyl]-2-carboxylic Acid]	<5	<5
2.51 nM	–	–	3.98 nM	CC(C)CN(c1ccc([C@H](C)CC(=O)O)cc1Nc1ccc(C(F)(F)F)cn1)C1CCCCC1 [Example 76, (R)-3-(4-(cyclohexyl(isobutyl)amino)-3-((5-(trifluoromethyl)pyridin-2-yl)amino)phenyl)butanoic Acid]	<5	<5
2 nM	–	–	6.31 nM	CO[C@H]1CC[C@@H](N(CC(C)C)c2ccc([C@H](C)CC(=O)O)cc2Nc2n[nH]c(Cl)n2)CC1 [Example 61, (R)-3-(3-((5-chloro-1H-1,2,4-triazol-3-yl)amino)-4-(isobutyl((cis)-4-methoxycyclohexyl)amino)phenyl)butanoic Acid]	<5	<5
7.94 nM	–	–	7.94 nM	COc1ccc2[nH]c(Nc3cc(-c4ccccc4C(=O)O)ccc3N(CC(C)C)C3CCCCC3)nc2c1 [example 287, 4′-[cyclohexyl(2-methylpropyl)amino]-3′-[(5-methoxy-1H-1,3-benzodiazol-2-yl)amino]-[1,1′-biphenyl]-2-carboxylic acid]	<5	<5
